Assay results: ChEMBL document CHEMBL1201862, “PubChem BioAssay data set” (2004)
Calls of active or inactive are those of the source. Unless noted, no cut-off for these calls is given here.

Experiments:
[1] = molecular target: T1, Protein RecA (Mycobacterium tuberculosis, UniProt P9WHJ3); test: Fluorescence Cell-Free Homogeneous Dose Retest to Identify Inhibitors of RecA-Intein Splicing Activity. [Related pubchem assays (depositor defined):AID2097, AID2223, AID489010, AID492950]; format: functional
T1 sequence (P9WHJ3 whole entry): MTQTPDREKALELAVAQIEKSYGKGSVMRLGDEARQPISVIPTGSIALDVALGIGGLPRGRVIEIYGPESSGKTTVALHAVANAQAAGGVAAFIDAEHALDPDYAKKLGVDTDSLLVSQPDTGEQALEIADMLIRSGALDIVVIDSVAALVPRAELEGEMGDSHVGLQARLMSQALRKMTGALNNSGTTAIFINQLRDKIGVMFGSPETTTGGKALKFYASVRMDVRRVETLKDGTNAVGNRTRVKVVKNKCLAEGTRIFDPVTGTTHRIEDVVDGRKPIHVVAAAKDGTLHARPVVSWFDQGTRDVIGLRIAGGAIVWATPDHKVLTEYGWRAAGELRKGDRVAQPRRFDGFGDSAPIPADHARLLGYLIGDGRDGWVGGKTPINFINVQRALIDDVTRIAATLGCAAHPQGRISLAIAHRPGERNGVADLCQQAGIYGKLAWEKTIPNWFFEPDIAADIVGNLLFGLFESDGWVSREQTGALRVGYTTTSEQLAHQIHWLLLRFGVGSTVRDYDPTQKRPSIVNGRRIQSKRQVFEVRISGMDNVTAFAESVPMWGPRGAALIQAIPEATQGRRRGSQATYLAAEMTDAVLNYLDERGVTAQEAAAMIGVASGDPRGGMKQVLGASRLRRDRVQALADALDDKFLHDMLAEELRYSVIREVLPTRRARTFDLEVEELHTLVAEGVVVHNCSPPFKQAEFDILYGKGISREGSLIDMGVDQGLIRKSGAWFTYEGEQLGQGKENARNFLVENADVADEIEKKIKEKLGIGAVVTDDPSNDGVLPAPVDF

[2] = molecular target: T2, Replicative DNA helicase DnaB (Mycobacterium tuberculosis, UniProt P9WMR3); test: DnaB intein splicing inhibitors, dose response, biochemical, cell-free fluorescence (AID 449749); format: functional
T2 sequence (P9WMR3 whole entry): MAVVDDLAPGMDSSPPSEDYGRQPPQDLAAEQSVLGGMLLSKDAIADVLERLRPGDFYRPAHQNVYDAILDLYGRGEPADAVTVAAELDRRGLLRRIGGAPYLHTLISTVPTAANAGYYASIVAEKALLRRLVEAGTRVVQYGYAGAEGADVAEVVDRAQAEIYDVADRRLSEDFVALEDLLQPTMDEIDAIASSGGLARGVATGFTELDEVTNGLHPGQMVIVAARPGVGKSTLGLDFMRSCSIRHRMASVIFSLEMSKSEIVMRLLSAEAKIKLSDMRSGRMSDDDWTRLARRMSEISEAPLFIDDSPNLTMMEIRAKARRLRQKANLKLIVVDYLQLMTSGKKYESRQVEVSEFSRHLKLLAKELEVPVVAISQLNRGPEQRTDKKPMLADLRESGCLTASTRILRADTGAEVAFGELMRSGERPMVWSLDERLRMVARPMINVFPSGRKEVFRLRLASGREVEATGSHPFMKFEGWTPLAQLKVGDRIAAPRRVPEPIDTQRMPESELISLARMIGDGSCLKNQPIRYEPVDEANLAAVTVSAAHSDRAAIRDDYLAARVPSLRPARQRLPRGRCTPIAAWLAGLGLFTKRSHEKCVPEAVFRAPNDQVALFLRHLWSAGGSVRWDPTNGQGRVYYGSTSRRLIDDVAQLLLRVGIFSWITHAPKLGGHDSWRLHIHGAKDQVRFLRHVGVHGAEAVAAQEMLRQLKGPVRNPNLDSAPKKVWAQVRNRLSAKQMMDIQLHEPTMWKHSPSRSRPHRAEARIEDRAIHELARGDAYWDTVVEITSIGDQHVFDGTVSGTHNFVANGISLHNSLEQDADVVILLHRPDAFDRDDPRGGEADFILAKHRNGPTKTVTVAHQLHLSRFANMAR

[3] = molecular target: T3, Mannose-6-phosphate isomerase (Homo sapiens, UniProt P34949); test: MPI inhibition at elevated mannose 6-phosphate – biochemical, fluorescence intensity, high mannose 6-phosphate, primary screen (AID 1220)
T3 sequence (P34949 whole entry): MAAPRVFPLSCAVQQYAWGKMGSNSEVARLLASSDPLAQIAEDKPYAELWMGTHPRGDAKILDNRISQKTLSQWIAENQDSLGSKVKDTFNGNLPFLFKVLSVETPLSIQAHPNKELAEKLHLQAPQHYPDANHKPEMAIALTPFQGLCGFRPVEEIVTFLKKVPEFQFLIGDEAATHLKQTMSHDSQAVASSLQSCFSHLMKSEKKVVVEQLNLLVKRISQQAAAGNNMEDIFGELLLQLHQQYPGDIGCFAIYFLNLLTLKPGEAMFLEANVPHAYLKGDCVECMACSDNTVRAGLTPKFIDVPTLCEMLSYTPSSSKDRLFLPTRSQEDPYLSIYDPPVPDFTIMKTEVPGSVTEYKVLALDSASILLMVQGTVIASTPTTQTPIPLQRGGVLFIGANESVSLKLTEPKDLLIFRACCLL

[4] = molecular target: T3, Mannose-6-phosphate isomerase; test: MPI enzyme activity inhibition – biochemical, fluorescence intensity, coupled assay, primary screen (AID 1209)
[5] = molecular target: T4, Protein skinhead-1 (Caenorhabditis elegans, UniProt P34707); format: functional
T4 sequence (P34707 whole entry): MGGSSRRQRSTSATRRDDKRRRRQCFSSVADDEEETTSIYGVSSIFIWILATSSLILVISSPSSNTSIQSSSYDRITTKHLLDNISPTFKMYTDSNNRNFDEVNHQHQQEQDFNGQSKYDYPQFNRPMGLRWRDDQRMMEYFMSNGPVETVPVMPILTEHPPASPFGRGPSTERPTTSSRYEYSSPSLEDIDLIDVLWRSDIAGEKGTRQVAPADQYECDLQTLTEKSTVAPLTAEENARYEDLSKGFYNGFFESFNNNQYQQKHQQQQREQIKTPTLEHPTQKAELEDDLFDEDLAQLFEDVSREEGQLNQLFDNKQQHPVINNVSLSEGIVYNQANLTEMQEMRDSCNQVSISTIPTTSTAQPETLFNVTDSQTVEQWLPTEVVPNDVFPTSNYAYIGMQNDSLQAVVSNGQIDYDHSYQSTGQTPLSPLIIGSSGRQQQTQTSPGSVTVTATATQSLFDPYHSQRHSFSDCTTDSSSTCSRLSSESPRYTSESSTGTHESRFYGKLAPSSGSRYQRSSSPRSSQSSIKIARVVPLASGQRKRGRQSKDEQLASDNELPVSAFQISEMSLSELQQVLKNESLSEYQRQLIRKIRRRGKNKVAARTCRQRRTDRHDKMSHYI

[6] = molecular target: Guanyl-specific ribonuclease T1 (Aspergillus oryzae (strain ATCC 42149 / RIB 40), UniProt P00651); test: inhibition of ribonuclease T1 activity – biochemical, fluorescence polarization, 1536-well, counter-screen for TPT1 inhibitor project, dose response (AID 2167)
Sequence of Guanyl-specific ribonuclease T1 (P00651 whole entry): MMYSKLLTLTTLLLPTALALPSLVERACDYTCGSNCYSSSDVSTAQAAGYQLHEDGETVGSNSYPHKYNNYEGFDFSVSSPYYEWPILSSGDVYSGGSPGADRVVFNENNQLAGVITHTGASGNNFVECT

[7] = molecular target: Likely tRNA 2'-phosphotransferase (Candida albicans (strain SC5314 / ATCC MYA-2876) (Yeast), UniProt Q5A7N4); test: inhibition of Candida TPT1 enzyme activity – biochemical, fluorescence polarization, dose response (AID 2160)
Sequence of Likely tRNA 2'-phosphotransferase (Q5A7N4 whole entry): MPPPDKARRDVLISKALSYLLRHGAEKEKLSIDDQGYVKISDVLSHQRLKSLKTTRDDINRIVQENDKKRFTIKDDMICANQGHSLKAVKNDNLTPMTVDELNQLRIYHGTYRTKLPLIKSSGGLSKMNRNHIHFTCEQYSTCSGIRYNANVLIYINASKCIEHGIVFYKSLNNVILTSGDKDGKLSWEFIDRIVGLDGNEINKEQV

[8] = Luminescence-based counterscreen assay for KLF5 inhibitors: dose response cell-based high throughput screening assay to identify cytotoxic compounds using the IEC-6 intestinal epithelial cell line. [Related pubchem assays: 1700 (Primary screen.), 1834 (Confirmation screen.), 1858 (Summary AID.), 1905 (Counterscreen.)]; format: functional

In the case of `CCN(CC)c1ccc2oc(=O)c(C)nc2c1`, the EC50 [1] is reported as 7.63 µM (active), the AC50 [2] is reported as > 380 µM (inactive) and the IC50 [3] is reported as 12.7 µM (active). The IC50 [4] was 10 µM (active) and the IC50 [5] was > 100 µM (inactive).

For `Cc1ccc(N2C(=O)NC(=O)/C(=C\c3ccc([N+](=O)[O-])o3)C2=O)cc1`, the IC50 [6] was > 55.7 µM (not active) and the IC50 [7] was 5.55 µM (active).

For `COc1ccc2nc(SCC(=O)NC3CCCC3)c(C)cc2c1`, the IC50 [8] was 16 µM (not active).
